Data as given in patent publication US4540697A, “Aminopropanol derivatives of 2-hydroxy-β-phenyl-propiophenones, pharmaceutical compositions and use” (priority 1984, dated 1985).
Where a name gives a salt, the structure may show the parent alone.

Each compound was assayed on isolated left atrium of male guineapigs (assay: Antiarrhythmic action on the isolated guineapig atrium (drop in maximum rhythmicity)). Details: Cavia porcellus, Tyrode's solution pH 7.4, 32° C., read-out: Maximum rhythmicity (ED 50%): concentration which causes a 50% drop in the maximum rhythmicity.
Design: species or system guineapig (strain: Pirbright white)
Protocol: The antiarrhythmic activity of the compounds according to the invention was determined on the isolated left atrium of male guineapigs (strain: Pirbright white, weight: 350 to 450 g).
Atria suspended in an organ bath (volume: 125 ml) with carbogen-saturated Tyrode's solution (pH 7.4, 32° C.) were pre-loaded with 1.0 g and subjected to square-wave pulses having a base rhythm of 1 Hz and twice the excitation threshold (rheobase: 0.2-1.4 V, chronaxia: 0.3-0.5 msec).
The frequency (Hz) up to which contraction follows each stimulus (maximum rhythmicity, MR) was determined, by automatically and continuously increasing the frequency, as a criterion of the antiarrhythmic activity. The concentration which causes a drop in the maximum rhythmicity of 50% (EC 50%) was calculated from the linear relationship between the logarithm of the concentration (mg/l) and the relative drop in the maximum rhythmicity (%).
(§1) The known antiarrhythmic drug propafenone [2-(2-hydroxy-3-propylamino-propoxy)-3-phenyl-propiophenone hydrochloride]was used as the comparative substance.

Compound	EC50 [µg/mL]
CCCNCC(O)COc1ccccc1C(=O)CCc1ccccc1 (stereo not drawn) [Propafenone, 2-(2'-hydroxy-3'-n-propylamino-propoxy)-β-phenyl-propiophenone hydrochloride, reference compound]	2.02
CN(C)CC(O)COc1ccccc1C(=O)CCc1ccccc1 (stereo not drawn) [Example 18, 2-[2'-Hydroxy-3'-(N,N-dimethylamino)-propoxy]-β-phenyl-propiophenone hydrochloride]	1.3
CC(C)N(CC(O)COc1ccccc1C(=O)CCc1ccc(N(C)C)cc1)C(C)C (stereo not drawn) [Example 64, 2-[2'-Hydroxy-3'-(N,N-diisopropylamino)-propoxy]-β-(4-dimethylaminophenyl)-propiophenone hydrochloride]	1.36
COc1ccc(CCN(C)CC(O)COc2ccccc2C(=O)CCc2ccccc2)cc1OC (stereo not drawn) [Example 15, 2-[2'-Hydroxy-3'-[N-methyl-N-(2-(3,4-dimethoxyphenyl)ethylamino)]-propoxy]-β-phenyl-propiophenone hydrochloride]	0.728
CCCNCC(O)COc1ccccc1C(=O)CCc1ccccc1OC (stereo not drawn) [Example 29, 2-(2'-Hydroxy-3'-n-propylamino-propoxy)-β-(2-methoxyphenyl)-propiophenone hydrochloride]	1.71
CCCN(CCC)CC(O)COc1ccc(Cl)cc1C(=O)CCc1ccc(F)cc1 (stereo not drawn) [Example 47, 2-(2'-Hydroxy-3'-di-n-propylamino-propoxy)-5-chloro-β-(p-fluorophenyl)-propiophenone hydrochloride]	1.45
CC(CNCC(O)COc1ccccc1C(=O)CCc1ccccc1)c1ccccc1 (stereo not drawn) [Example 12, 2-[2'-Hydroxy-3'-(2-phenylpropylamino)-propoxy]-β-phenyl-propiophenone hydrochloride]	1.25
COc1ccc(CCNCC(O)COc2ccccc2C(=O)CCc2ccccc2)cc1OC (stereo not drawn) [Example 14, 2-[2'-Hydroxy-3'-(2-(3,4-dimethoxyphenyl)-ethylamino)propoxy]-β-phenyl-propiophenone hydrochloride]	2.17
C#CC(C)(C)NCC(O)COc1ccccc1C(=O)CCc1ccccc1 (stereo not drawn) [Example 7, 2-[2'-Hydroxy-3'-(3-methyl-1-butyn-3-ylamino)-propoxy]-β-phenyl-propiophenone hydrochloride]	1.66
CCCNCC(O)COc1ccc(C)cc1C(=O)CCc1ccc(OC)c(OC)c1 (stereo not drawn) [Example 48, 2-(2'-Hydroxy-3'-n-propylamino-propoxy)-5-methyl-β-(3,4-dimethoxyphenyl)-propiophenone hydrochloride]	0.923
C#CC(C)NCC(O)COc1ccccc1C(=O)CCc1ccccc1 (stereo not drawn) [Example 6, 2-[2'-Hydroxy-3'-(1-butyn-3-ylamino)-propoxy]-β-phenyl-propiophenone hydrochloride]	1.71
O=C(CCc1ccccc1)c1ccccc1OCC(O)CN1CCC(c2ccccc2)C1 (stereo not drawn) [Example 22, 2-[2'-Hydroxy-3'-(3-phenyl-pyrrolidino)-propoxy]-β-phenyl-propiophenone hydrochloride]	1.21
CCCN(CCC)CC(O)COc1ccc(C)cc1C(=O)CCc1ccc(Cl)cc1 (stereo not drawn) [Example 46, 2-(2'-Hydroxy-3'-di-n-propylamino-propoxy)-5-methyl-β-(4-chlorophenyl)-propiophenone hydrochloride]	0.778

The compounds below were run on aconitine arrhythmia in rats (assay: Antiarrhythmic action on aconitine arrhythmia in rats). Details: Rattus norvegicus, iv, 1 h, intravenous administration (footnote 2), aconitine infused 60 minutes after substance, read-out: ED 50%: dose which causes a 50% extension in the period of aconitine infusion.
Assay type: in vivo, rat (strain: Sprague Dawley)
Protocol: Moreover, the novel compounds were administered orally or intravenously to male rats (strain: Sprague Dawley, weight: 200-230 g) to determine the antiarrhythmic activity. 45 minutes later, the animals were anesthetized by intraperitoneal administration of 100 mg/kg of thiobutabarbital sodium. Aconitine served as the arrhythmogenic substance, and was infused intravenously at a dosage rate of 0.005 mg/kg/minute 60 minutes after administration of the substance. In untreated animals (n=52), arrhythmias appeared in the ECG after 2.74±0.07 minutes. These arrhythmias can be delayed by antiarrhythmic drugs, as a function of the dose.
The dose which extends the infusion period by 50% (ED 50%) was determined from the linear relationship between the logarithm of the dose (mg/kg) of the trial substance and the relative extension of the period of aconitine infusion (Δ%).
as §1

Compound	ED50 [mg/kg]
CCCNCC(O)COc1ccc(O)cc1C(=O)CCc1ccccc1 (stereo not drawn) [Example 71, 2-(2'-Hydroxy-3'-n-propylamino-propoxy)-5-hydroxy-β-phenyl-propiophenone hydrochloride]	0.51

Same assay, conditions: Rattus norvegicus, po, 1 h, peroral administration, aconitine infused 60 minutes after substance, read-out: ED 50%: dose which causes a 50% extension in the period of aconitine infusion

Compound	ED50 [mg/kg]
CCCNCC(O)COc1ccc(C)cc1C(=O)CCc1ccc(N(C)C)cc1 (stereo not drawn) [Example 63, 2-(2'-Hydroxy-3'-n-propylamino-propoxy)-5-methyl-β-(4-dimethylaminophenyl)-propiophenone hydrochloride]	3.03
CC(C)(O)CCNCC(O)COc1ccccc1C(=O)CCc1ccccc1 (stereo not drawn) [Example 8, 2-[2'-Hydroxy-3'-(3-hydroxy-3-methyl-butylamino)-propoxy]-β-phenyl-propiophenone hydrochloride]	21
O=C(CCc1ccccc1)c1ccccc1OCC(O)CNC1CCCCC1 (stereo not drawn) [Example 4, 2-(2'-Hydroxy-3'-cyclohexylamino-propoxy)-β-phenylpropiophenone hydrochloride]	46.4
CN(C)CCNCC(O)COc1ccccc1C(=O)CCc1ccccc1 (stereo not drawn) [Example 16, 2-[2'-Hydroxy-3'-(2-dimethylaminoethylamino)-propoxy]-β-phenyl-propiophenone bis-hydrochloride]	29
COCC(C)NCC(O)COc1ccc(C)cc1C(=O)CCc1ccc(N(C)C)cc1 (stereo not drawn) [Example 69, 2-[2'-Hydroxy-3'-(3-methoxy-prop-2-ylamino)-propoxy]-5-methyl-β-(4-dimethylaminophenyl)-propiophenone hydrochloride]	31.6
CCCNCC(O)COc1ccc(Cl)cc1C(=O)CCc1ccc(N(C)C)cc1 (stereo not drawn) [Example 62, 2-(2'-Hydroxy-3'-n-propylamino-propoxy)-5-chloro-β-(4-dimethylaminophenyl)-propiophenone hydrochloride]	21.5
CC(C)NCC(O)COc1ccccc1C(=O)CCc1ccc(N(C)C)cc1 (stereo not drawn) [Example 56, 2-(2'-Hydroxy-3'-isopropylamino-propoxy)-β-(4-dimethylaminophenyl)-propiophenone hydrochloride]	3.4
CCCNCC(O)COc1ccccc1C(=O)CCc1ccc(N(CC)CC)cc1 (stereo not drawn) [Example 61, 2-(2'-Hydroxy-3'-n-propylamino-propoxy)-β-(4-diethylaminophenyl)-propiophenone hydrochloride]	1.9
CC(C)N(CC(O)COc1ccc(Cl)cc1C(=O)CCc1ccc(N(C)C)cc1)C(C)C (stereo not drawn) [Example 66, 2-[2'-Hydroxy-3'-(N,N-diisopropylamino)-propoxy]-5-chloro-β-(4-dimethylaminophenyl)-propiophenone hydrochloride]	21.5
CCCNCC(O)COc1ccccc1C(=O)CCc1ccc(OC)c(OC)c1 (stereo not drawn) [Example 36, 2-(2'-Hydroxy-3'-n-propylamino-propoxy)-β-(3,4-dimethoxyphenyl)-propiophenone hydrochloride]	6.92
COCC(C)NCC(O)COc1ccc(Cl)cc1C(=O)CCc1ccccc1 (stereo not drawn) [Example 38, 2-[2'-Hydroxy-3'-(3-methoxy-prop-2-ylamino)-propoxy]-5-chloro-β-phenyl-propiophenone hydrochloride]	21.5
O=C(CCc1ccccc1)c1cc(Cl)ccc1OCC(O)CN1CCCCC1 (stereo not drawn) [Example 40, 2-(2'-Hydroxy-3'-piperidino-propoxy)-5-chloro-β-phenyl-propiophenone]	46.4
CCCNCC(O)COc1ccc(Cl)cc1C(=O)CCc1ccccc1 (stereo not drawn) [Example 37, 2-(2'-Hydroxy-3'-n-propylamino-propoxy)-5-chloro-β-phenyl-propiophenone hydrochloride]	46.4
Cc1ccc(OCC(O)CN2CCN(C)CC2)c(C(=O)CCc2ccc(N(C)C)cc2)c1 (stereo not drawn) [Example 68, 2-[2'-Hydroxy-3'-(4-methyl-piperazin-1-yl)-propoxy]-5-methyl-β-(4-dimethylaminophenyl)-propiophenone hydrochloride]	46.4

Same assay, conditions: peroral administration, aconitine infused 60 minutes after substance

Compound	ED 50%: dose which causes a 50% extension in the period of aconitine infusion [mg/kg]
2-[2'-Hydroxy-3'-(2-hydroxyethylamino)-propoxy]-β-(dimethylaminophenyl)-propiophenone hydrogen oxalate [Example 59]	21.5
